From US7262151B2, “Methods and compositions for production of lipo-chito oligosaccharides by rhizobacteria” (McGill University, priority 2001, dated 2007)
Read-outs that look alike come from different tables or passages of the source.

Legend:
[1] = tested on: nod genes in Bradyrhizobium japonicum strain USDA76; assay: nod gene induction, β-galactosidase assay, strain USDA 76 (GG2); assay type: cell-based; conditions: control 411.8 ± 26.8
Procedure: (§1) Bacteria were grown in yeast extract mannitol (YEM) medium (mannitol 10.0 g, K2HPO4 0.5 g, MgSO4.7H2O 0.2 g, NaCl 0.1 g, and yeast extract 0.4 g dissolved in 1000 mL of dd H2O). In order to ensure the maintenance of the strains, tetracycline was added to the bacterial cultures at a concentration of 20 mg 1^−1. One hundred mL cultures of each strain, in 250 mL flasks, were shaken at 150 rev min^−1 at 30° C. for 3-5 days and then subcultured into 400 mL of fresh medium in 1000 mL flasks. The cultures were incubated until the OD620 reached 0.2-0.3. The cultures were then divided into 5 mL tubes (sterilized).
(§2) Stock solutions of various inducers: genistein, salicylic acid and acetylsalicylic acid made in methanol and linolenic, linoleic, and jasmonic acid and methyl jasmonate were made in ethanol, and an appropriate amount of these inducers was added into the tubes before addition of bacterial culture. In the tubes, the final concentration of all the inducers was maintained as 5, 10, 25, 50 and 100 μM. Tubes were collected after 18 h of incubation and stored at −20° C. until the β-galactosidase activity was measured. Genistein (4′,5,7, trihydroxyisoflavone, purity 98%,), linolenic acid (9,12,15-Octadecatrienoic acid, purity 99%), linoleic acid (cis-9, cis-12-Octadecadienoic acid, purity 99%), jasmonic acid (±Jasmonic acid, C12H18O3) and salicylic acid (2-hydroxybenzoic acid, purity 99.0%) were obtained from Sigma, while acetylsalicylic acid (C9H8O4, 99% purity) was obtained from Acros and methyl jasmonate (95% purity) was obtained from Aldrich Chemical Company, Inc.
(§3) β-galactosidase is an enzyme which hydrolyzes β-D-galactosides. The activity of this enzyme can easily be measured with colorless substrates, which upon hydrolysis produce colored products. O-nitrophenyl-β-galactoside (ONPG) is a colorless compound and is converted to galactose and O-nitrophenol in the presence of β-galactosidase. The O-nitrophenol is yellow and can be measured by its absorption at 420 nm. In the present study, nod gene expression was indirectly measured by β-galactosidase activity following the method of Miller (1972) as modified by Stachel et al, (1985). Briefly, 0.5 mL culture was mixed with 2×Z buffer (Na2HPO4.7H2O, 16.1 g, NaH2PO4.H2O, 5.5 g, KCl 0.75 g, MgSO4.7H2O 0.246 g, β-mercaptoethanol 2.7 g, pH 7.0 dissolved in 500 mL water) and 40 μL toluene and vortexed for 10 seconds. The culture was then incubated in a water bath at 37° C. for 30 minutes and then 0.2 mL of O-nitrophenyl β-D-galactopyranoside (ONPG) was added at a concentration of 4 mg mL^−1. The cultures were incubated again in the water bath until the color of the culture changed. The reaction time was recorded and the reaction was stopped with 1M Na2CO3. After centrifugation at 10,000 rpm for 4 minutes, spectrophotometric reading at OD420 and OD600 were taken and the β-galactosidase activity was measured (β-galactosidase activity=OD420*1000/OD600*T*V, where T is the reaction time and V is the volume of the bacterial culture used for enzyme assay).
(§4) The effect of 0-100 μM concentrations of each of acetylsalicylic acid, salicylic acid, jasmonic acid, methyl jasmonate, and genistein, on induction of nod gene expression in Bradyrhizobium japonicum strains USDA31, USDA76, USDA121, and USDA3, was evaluated in accordance with the β-galactosidase assay of Experiment 1 in Example 1 above.

[2] = tested on: nod genes in Bradyrhizobium japonicum strain USDA121; assay: nod gene induction, β-galactosidase assay, strain USDA121 (GG3); assay type: cell-based; conditions: control 476.8 ± 86.6
Procedure: as §1, §2, §3, §4

[3] = tested on: Rhizobium leguminasorum strain RBL 1284; conditions: Rosas et al (1998); cited from earlier work
[4] = tested on: nod genes in Bradyrhizobium japonicum strain USDA31; assay: nod gene induction, β-galactosidase assay, strain USDA31 (GG1); assay type: cell-based
Procedure: as §1, §2, §3, §4

[5] = tested on: nod genes in Bradyrhizobium japonicum strain USDA3; assay type: cell-based; conditions: for nod gene induction (β-galactosidase activity): USDA3 (GG4), control 362 ± 25; for expression of nod genes (β-galactosidase assay), in words: FIG. 1; for synergistic effect on β-galactosidase activity: simultaneous addition with genistein (5 μM), FIG. 2
Procedure: Bradyrhizobium japonicum strain USDA3, harboring plasmid GG4, was used in the experiment. Plasmid GG4 contains a translational fusion between B. japonicum nod Y open-reading frame and lac Z of Escherichia coli.
as §1, §2, §3
The experiment was designed in a randomized complete block design (RCBD) with three replicates. […] Data are shown from the second experiment. Statistical analysis of the data was done with analysis of variance using the Statistical Analysis System computer package (SAS Institute, 1988). Comparisons among treatment means were made with an ANOVA protected LSD at the 0.05 level of statistical significance.

[6] = 5 μM, control without inducer 522.6 ± 15.9
[7] = concentrations from 25 to 100 μM

SMILES: CC/C=C\C[C@H]1C(=O)CC[C@@H]1CC(=O)O [JA, [1R-[1α,2β(Z)]]-3-oxo-2-(pentenyl)cyclopentaneacetic acid]
- nod gene induction (β-galactosidase activity) ([1]; 5 μM): 393.5 ± 30.5
- nod gene induction (β-galactosidase activity) ([1]; 10 μM): 447.9 ± 21
- nod gene induction (β-galactosidase activity) ([1]; 25 μM): 420.1 ± 4.6
- nod gene induction (β-galactosidase activity) ([1]; 50 μM): 375.1 ± 35.3
- nod gene induction (β-galactosidase activity) ([1]; 100 μM): 357.7 ± 9.7
- nod gene induction (β-galactosidase activity) ([2]; 5 μM): 540.3 ± 79.3
- nod gene induction (β-galactosidase activity) ([2]; 10 μM): 473.7 ± 58.3
- nod gene induction (β-galactosidase activity) ([2]; 25 μM): 496 ± 49.2
- nod gene induction (β-galactosidase activity) ([2]; 50 μM): 412.7 ± 22.9
- nod gene induction (β-galactosidase activity) ([2]; 100 μM): 329.5 ± 19.3
- expression of nod genes, in words [3]: induced expression of nod genes
- nod gene induction (β-galactosidase activity) [4, 6]: 1653.3 ± 105.2
- nod gene induction (β-galactosidase activity) ([4]; 10 μM, control 522.6 ± 15.9): 2079 ± 254.9
- nod gene induction (β-galactosidase activity) ([4]; 25 μM, control 522.6 ± 15.9): 1853.3 ± 314.5
- nod gene induction (β-galactosidase activity) ([4]; 50 μM, control 522.6 ± 15.9): 1884.3 ± 289.3
- nod gene induction (β-galactosidase activity) ([4]; 100 μM, control 522.6 ± 15.9): 796 ± 67.3
- nod gene induction (β-galactosidase activity) ([5]; 5 μM): 368 ± 23
- nod gene induction (β-galactosidase activity) ([5]; 10 μM): 362 ± 9
- nod gene induction (β-galactosidase activity) ([5]; 25 μM): 3200 ± 230
- nod gene induction (β-galactosidase activity) ([5]; 50 μM): 3900 ± 150
- nod gene induction (β-galactosidase activity) ([5]; 100 μM): 550 ± 210
- expression of nod genes (β-galactosidase assay), in words ([5]; concentrations 10 μM or less): showed no activity
- expression of nod genes (β-galactosidase assay), in words [5, 7]: strongly induced the expression of nod genes
- synergistic effect on β-galactosidase activity [5]: did not result in any synergistic effect

SMILES: CC/C=C\CC1C(=O)CCC1CC(=O)OC (stereo not drawn) [MeJA, methyl jasmonate]
- nod gene induction (β-galactosidase activity) ([1]; 5 μM): 435.4 ± 39
- nod gene induction (β-galactosidase activity) ([1]; 10 μM): 418.4 ± 53.1
- nod gene induction (β-galactosidase activity) ([1]; 25 μM): 392.7 ± 2.1
- nod gene induction (β-galactosidase activity) ([1]; 50 μM): 410.4 ± 24.5
- nod gene induction (β-galactosidase activity) ([1]; 100 μM): 386.4 ± 37.3
- nod gene induction (β-galactosidase activity) ([2]; 5 μM): 518 ± 42.6
- nod gene induction (β-galactosidase activity) ([2]; 10 μM): 487.1 ± 33
- nod gene induction (β-galactosidase activity) ([2]; 25 μM): 427 ± 29.4
- nod gene induction (β-galactosidase activity) ([2]; 50 μM): 549.2 ± 81.6
- nod gene induction (β-galactosidase activity) ([2]; 100 μM): 487.9 ± 89.3
- expression of nod genes, in words [3]: induced expression of nod genes
- nod gene induction (β-galactosidase activity) [4, 6]: 472.2 ± 14.8
- nod gene induction (β-galactosidase activity) ([4]; 10 μM, control 522.6 ± 15.9): 485.3 ± 42.5
- nod gene induction (β-galactosidase activity) ([4]; 25 μM, control 522.6 ± 15.9): 403.3 ± 5.6
- nod gene induction (β-galactosidase activity) ([4]; 50 μM, control 522.6 ± 15.9): 500.1 ± 32
- nod gene induction (β-galactosidase activity) ([4]; 100 μM, control 522.6 ± 15.9): 392.9 ± 22.7
- nod gene induction (β-galactosidase activity) ([5]; 5 μM): 448 ± 30
- nod gene induction (β-galactosidase activity) ([5]; 10 μM): 500 ± 61
- nod gene induction (β-galactosidase activity) ([5]; 25 μM): 3000 ± 350
- nod gene induction (β-galactosidase activity) ([5]; 50 μM): 4700 ± 450
- nod gene induction (β-galactosidase activity) ([5]; 100 μM): 4500 ± 400
- expression of nod genes (β-galactosidase assay), in words ([5]; concentrations 10 μM or less): showed no activity
- expression of nod genes (β-galactosidase assay), in words [5, 7]: strongly induced the expression of nod genes
- synergistic effect on β-galactosidase activity [5]: did not result in any synergistic effect

SMILES: O=c1c(-c2ccc(O)cc2)coc2cc(O)cc(O)c12 [GEN, 5,7,4′-trihydroxyisoflavone]
- nod gene induction (β-galactosidase activity) ([1]; 5 μM): 1421.7 ± 93.4
- nod gene induction (β-galactosidase activity) ([1]; 10 μM): 1320.8 ± 75.99
- nod gene induction (β-galactosidase activity) ([1]; 25 μM): 1383.8 ± 98.22
- nod gene induction (β-galactosidase activity) ([1]; 50 μM): 1160.7 ± 89.7
- nod gene induction (β-galactosidase activity) ([1]; 100 μM): 413.7 ± 7.4
- nod gene induction (β-galactosidase activity) ([2]; 5 μM): 2081.7 ± 148.5
- nod gene induction (β-galactosidase activity) ([2]; 10 μM): 1685.1 ± 53.3
- nod gene induction (β-galactosidase activity) ([2]; 25 μM): 1286.8 ± 145.5
- nod gene induction (β-galactosidase activity) ([2]; 50 μM): 1154.5 ± 121.1
- nod gene induction (β-galactosidase activity) ([2]; 100 μM): 430.9 ± 80.6
- nod gene induction (β-galactosidase activity) [4, 6]: 2283.8 ± 57.7
- nod gene induction (β-galactosidase activity) ([4]; 10 μM, control 522.6 ± 15.9): 2007.6 ± 36.7
- nod gene induction (β-galactosidase activity) ([4]; 25 μM, control 522.6 ± 15.9): 1821 ± 89.2
- nod gene induction (β-galactosidase activity) ([4]; 50 μM, control 522.6 ± 15.9): 1121.1 ± 156.9
- nod gene induction (β-galactosidase activity) ([4]; 100 μM, control 522.6 ± 15.9): 491.9 ± 31.6
- nod gene induction (β-galactosidase activity) ([5]; 5 μM): 3304 ± 333
- nod gene induction (β-galactosidase activity) ([5]; 10 μM): 2500 ± 94
- nod gene induction (β-galactosidase activity) ([5]; 25 μM): 2300 ± 219
- nod gene induction (β-galactosidase activity) ([5]; 50 μM): 1930 ± 74
- nod gene induction (β-galactosidase activity) ([5]; 100 μM): 406 ± 15
- optimum concentration for nod gene induction ([5]; USDA3, β-galactosidase assay): 5 µM
